Assays:
[1] = Therapeutic index, ratio of CC50 for human MT4 cells to EC50 for HIV-1 NL4-3 infected in human MT4 cells; assay type: toxicity, cell-based; conditions: read-out: Ratio CC50/EC50
[2] = Cytotoxicity against human MT4 cells assessed as reduction in cell viability after 5 days by MTT assay; assay type: cell-based
[3] = tested on: Human immunodeficiency virus 1; assay: Antiviral activity against HIV-1 IRLL98 harboring reverse transcriptase M41L, D67N, Y181C, M184V, R211K, and T215Y mutants infected in human MT4 cells assessed as inhibition of virus-induced cytopathic effect after 5 days by MTT assay; assay type: functional, organism-based; conditions: Human immunodeficiency virus 1, IRLL98, MT4, 120 h
[4] = tested on: Human immunodeficiency virus 1; assay: Resistance index, ratio of EC50 for HIV-1 IRLL98 harboring reverse transcriptase M41L, D67N, Y181C, M184V, R211K, and T215Y mutants to EC50 for wild type HIV-1 NL4-3; assay type: functional
[5] = target: Human immunodeficiency virus type 1 reverse transcriptase (Human immunodeficiency virus 1) (UniProt Q72547)
Description: Inhibition of recombinant wild type HIV-1 His-tagged reverse transcriptase p66/p51 expressed in Escherichia coli assessed as reduction in [3H]dTTP incorporation using poly(rA)/oligo(dT) as template/primer after 20 mins by scintillation counting analysis

[6] = tested on: Human immunodeficiency virus type 1 reverse transcriptase (Human immunodeficiency virus 1), Q72547 [K103N]
Description: Inhibition of recombinant HIV-1 His-tagged reverse transcriptase p66/p51 K103N mutant expressed in Escherichia coli assessed as reduction in [3H]dTTP incorporation using poly(rA)/oligo(dT) as template/primer after 20 mins by scintillation counting analysis

[7] = tested on: Human immunodeficiency virus type 1 reverse transcriptase (Human immunodeficiency virus 1), Q72547 [L100I]
[8] = tested on: Human immunodeficiency virus 1; assay: Antiviral activity against wild type HIV 1 NL4-3 infected in human MT4 cells assessed as inhibition of virus-induced cytopathic effect after 5 days by MTT assay; assay type: functional, organism-based; conditions: Human immunodeficiency virus 1, NL4-3, MT4, 120 h
[9] = tested on: Human immunodeficiency virus 1; assay: Antiviral activity against HIV 1 harboring reverse transcriptase Y181C mutant infected in human MT4 cells assessed as inhibition of virus-induced cytopathic effect after 5 days by MTT assay; assay type: functional, organism-based; conditions: Human immunodeficiency virus 1, MT4, 120 h
[10] = tested on: Human immunodeficiency virus 1; assay: Antiviral activity against HIV-1 harboring reverse transcriptase Y188L mutant infected in human MT4 cells assessed as inhibition of virus-induced cytopathic effect after 5 days by MTT assay; assay type: functional, organism-based; conditions: Human immunodeficiency virus 1, MT4, 120 h
[11] = tested on: Human immunodeficiency virus 1; assay: Antiviral activity against HIV-1 harboring reverse transcriptase K103N mutant infected in human MT4 cells assessed as inhibition of virus-induced cytopathic effect after 5 days by MTT assay; assay type: functional, organism-based; conditions: Human immunodeficiency virus 1, MT4, 120 h
[12] = tested on: Human immunodeficiency virus 1; assay: Resistance index, ratio of EC50 for HIV-1 harboring reverse transcriptase Y181C mutant to EC50 for wild type HIV-1 NL4-3; assay type: functional
[13] = tested on: Human immunodeficiency virus 1; assay: Resistance index, ratio of EC50 for HIV-1 harboring reverse transcriptase Y188L mutant to EC50 for wild type HIV-1 NL4-3; assay type: functional
[14] = tested on: Human immunodeficiency virus 1; assay: Resistance index, ratio of EC50 for HIV-1 harboring reverse transcriptase K103N mutant to EC50 for wild type HIV-1 NL4-3; assay type: functional
[15] = tested on: Human immunodeficiency virus 1; assay: Resistance index, ratio of ID50 for recombinant HIV-1 His-tagged reverse transcriptase p66/p51 K103N mutant to ID50 for recombinant wild type HIV-1 reverse transcriptase His-tagged p66/p51
[16] = tested on: Human immunodeficiency virus 1; assay: Resistance index, ratio of ID50 for recombinant HIV-1 His-tagged reverse transcriptase p66/p51 Y181I mutant to ID50 for recombinant wild type HIV-1 reverse transcriptase His-tagged p66/p51
[17] = tested on: Human immunodeficiency virus 1; assay: Resistance index, ratio of ID50 for recombinant HIV-1 His-tagged reverse transcriptase p66/p51 L100I mutant to ID50 for recombinant wild type HIV-1 reverse transcriptase His-tagged p66/p51
[18] = tested on: Human immunodeficiency virus type 1 reverse transcriptase (Human immunodeficiency virus 1), Q72547 [Y181I]

Row | Structure (SMILES) | selectivity ratio [1] | CC50 at 120 h [2] [µM] | EC50 [3] [µM] | Ratio EC50 [4] | ID50 [5] [µM] | ID50 [6] [µM] | ID50 [7] [µM] | EC50 [8] [µM] | EC50 [9] [µM] | EC50 [10] [µM] | EC50 [11] [µM] | Ratio EC50 [12] | Ratio EC50 [13] | Ratio EC50 [14] | Ratio [15] | Ratio [16] | Ratio [17] | ID50 [18] [µM]
1 | Cc1c(C(C)c2c(F)cccc2Cl)nc(SC2CCCC2)[nH]c1=O (stereo not drawn) | > 500000 | > 15 | 0.068 | 2267 | 0.011 | 1.3 | 0.12 | – | – | – | – | – | – | – | – | – | – | –
2 | CCC(C)Sc1nc(O)c(C)c(C(C)c2c(F)cccc2F)n1 (stereo not drawn) | > 3330 | > 3 | 0.079 | 88 | 0.031 | 1.7 | 0.67 | – | – | – | – | – | – | – | – | – | – | –
3 | COC(c1nc(NC(C)C)[nH]c(=O)c1C)c1c(F)cccc1Cl (stereo not drawn) | > 2670 | > 77.4 | – | – | 0.11 | 1.6 | 1.9 | 0.029 | 1.4 | 8.5 | 0.62 | 48 | 293 | 21 | 14 | 29 | 17 | 3.2
4 | CCC(C)Sc1nc(C(CC)c2c(F)cccc2F)c(C)c(=O)[nH]1 (stereo not drawn) | > 3750 | > 3 | 0.15 | 187 | 0.006 | 0.14 | 0.048 | – | – | – | – | – | – | – | – | – | – | –
5 | Cc1cc(C)c(Nc2ccnc(Nc3ccc(C#N)cc3)n2)c(C)c1 [DAPIVIRINE] | – | – | 0.006 | – | – | – | – | 0.0006 | – | – | 0.0022 | – | – | – | – | – | – | –
6 | CCC(c1nc(SC2CCCC2)[nH]c(=O)c1C)c1c(F)cccc1F (stereo not drawn) | 2730 | 30 | 0.75 | 68 | 0.005 | 0.38 | 0.11 | – | – | – | – | 100 | – | – | – | – | – | –
7 | Cc1c([C@H](C)c2c(F)cccc2F)nc(SC2CCCC2)[nH]c1=O | 185000 | 55.6 | – | – | 0.005 | 0.01 | 0.09 | 0.0003 | 0.011 | 0.14 | 0.001 | 37 | 467 | 3 | 2 | 30 | 18 | 0.15
8 | COC(c1nc(NC2CCCC2)[nH]c(=O)c1C)c1c(F)cccc1Cl (stereo not drawn) | 10000 | 70.3 | – | – | 0.04 | 0.12 | 1.1 | 0.007 | 0.39 | 3.7 | 0.17 | 56 | 529 | 24 | 3 | 37 | 27 | 1.5
9 | Cc1c(O)nc(SC(C)C)nc1C(C)c1c(F)cccc1F (stereo not drawn) | – | – | 0.145 | 145 | 0.003 | 0.58 | 0.28 | – | – | – | – | – | – | – | – | – | – | –
10 | CCC(c1nc(SC(C)C)[nH]c(=O)c1C)c1c(F)cccc1F (stereo not drawn) | > 7500 | > 30 | 0.28 | 70 | 0.004 | 0.31 | 0.21 | – | – | – | – | – | – | – | – | – | – | –
11 | CCCNc1nc(C(C)c2c(F)cccc2F)c(C)c(=O)[nH]1 (stereo not drawn) | 11700 | 35 | 0.09 | 30 | 0.04 | 0.47 | 0.31 | – | 0.06 | > 10 | – | 20 | – | – | 12 | 125 | 8 | 5.02
12 | Cc1c([C@@H](C)c2c(F)cccc2F)nc(SC2CCCC2)[nH]c1=O | 3240 | 35.6 | – | – | 0.155 | 0.54 | 2.7 | 0.011 | 1.28 | 8.2 | 0.282 | 116 | 745 | 26 | 3 | 31 | 17 | 4.8
13 | Cc1c(C(C)c2c(F)cccc2F)nc(SC2CCCC2)[nH]c1=O (stereo not drawn) | > 3000 | > 3 | 0.12 | 120 | 0.005 | 0.3 | 0.3 | 0.001 | – | – | 0.23 | 100 | – | – | 60 | 180 | 60 | 0.9
14 | COC(c1nc(NC(C)C)[nH]c(=O)c1C)c1c(Cl)cccc1Cl (stereo not drawn) | 651 | 62.5 | – | – | 0.34 | 5.2 | 3.8 | 0.096 | 5.8 | 12.2 | 3 | 60 | 127 | 31 | 15 | 23 | 11 | 7.8
15 | CCCN(C)c1nc([C@H](OC)c2c(Cl)cccc2Cl)c(C)c(=O)[nH]1 | 162000 | 65 | – | – | 0.008 | 0.016 | 0.15 | 0.0004 | 0.003 | 0.009 | 0.002 | 7 | 22 | 5 | 2 | 42 | 19 | 0.34

— ChEMBL document CHEMBL4371047, “Effect of α-Methoxy Substitution on the Anti-HIV Activity of Dihydropyrimidin-4(3 H)-ones” (J Med Chem, 2019)
